Measurements taken from ChEMBL document CHEMBL1153760, “Identification and structure-activity relationships of chromene-derived selective estrogen receptor modulators for treatment of postmenopausal symptoms” (J Med Chem, 2009).

Columns and labels:
Estrogen receptor beta = Estrogen receptor beta (Homo sapiens, UniProt Q92731); test: Inhibition of fluormone ES2 binding to estrogen receptor beta after 1 hr by fluorescence polarization assay
Rattus norvegicus = organism: Rattus norvegicus; test: animal or person; type: functional; conditions: Uterus, 72 h, route oral
Estrogen receptor [1] = biological target: T1, Estrogen receptor (Homo sapiens, UniProt P03372); test: Antagonist activity at estrogen receptor in human Ishikawa cells assessed as 17-beta-estradiol-induced alkaline phosphatase activity after 3 days by chemiluminescence assay; type: functional, cell-based
T1 sequence (P03372 whole entry): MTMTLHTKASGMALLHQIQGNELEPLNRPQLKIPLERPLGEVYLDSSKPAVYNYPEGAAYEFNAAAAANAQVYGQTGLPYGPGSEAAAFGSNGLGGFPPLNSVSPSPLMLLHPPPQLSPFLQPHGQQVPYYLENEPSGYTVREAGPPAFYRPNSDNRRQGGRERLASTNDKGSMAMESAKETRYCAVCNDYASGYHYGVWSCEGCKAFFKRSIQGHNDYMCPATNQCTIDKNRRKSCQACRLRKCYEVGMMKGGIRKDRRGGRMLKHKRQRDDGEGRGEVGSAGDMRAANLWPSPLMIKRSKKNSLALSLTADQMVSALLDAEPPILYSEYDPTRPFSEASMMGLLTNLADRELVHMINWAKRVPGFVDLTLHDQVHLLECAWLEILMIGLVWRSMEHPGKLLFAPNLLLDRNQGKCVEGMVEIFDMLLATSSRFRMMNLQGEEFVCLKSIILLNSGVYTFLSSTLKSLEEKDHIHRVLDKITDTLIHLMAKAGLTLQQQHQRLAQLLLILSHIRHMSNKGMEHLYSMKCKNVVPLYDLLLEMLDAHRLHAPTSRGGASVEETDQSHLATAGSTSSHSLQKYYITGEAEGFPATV

Estrogen receptor [2] = biological target: T1, Estrogen receptor; test: Displacement of radiolabeled estrogen from estrogen receptor alpha by scintillation counting

Estrogen receptor beta, sequence (Q92731 whole entry): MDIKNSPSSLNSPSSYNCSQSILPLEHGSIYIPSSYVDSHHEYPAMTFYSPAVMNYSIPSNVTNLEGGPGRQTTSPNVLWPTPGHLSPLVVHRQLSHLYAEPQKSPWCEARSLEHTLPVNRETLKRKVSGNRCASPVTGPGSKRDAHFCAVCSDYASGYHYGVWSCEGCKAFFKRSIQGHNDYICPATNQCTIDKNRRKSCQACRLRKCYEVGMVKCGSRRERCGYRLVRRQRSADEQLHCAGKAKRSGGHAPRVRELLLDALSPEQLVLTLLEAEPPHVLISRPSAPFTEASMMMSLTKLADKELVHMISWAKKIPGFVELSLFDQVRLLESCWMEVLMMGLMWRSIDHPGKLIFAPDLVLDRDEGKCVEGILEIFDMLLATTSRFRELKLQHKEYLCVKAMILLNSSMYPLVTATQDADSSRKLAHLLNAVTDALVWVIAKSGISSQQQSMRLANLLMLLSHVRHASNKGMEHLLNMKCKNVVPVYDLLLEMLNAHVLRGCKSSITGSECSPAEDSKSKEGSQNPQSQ

## Oc1ccc2c(c1)O[C@H](c1ccc(OCCN3CCCC3)cc1)C1=C2CCOc2cc(O)ccc21
Estrogen receptor beta
  IC50: 14 nM
Rattus norvegicus
  inhibition in vivo at 1 mg/kg: 10%
Estrogen receptor [1]
  IC50: 10 nM
Estrogen receptor [2]
  IC50: 1.2 nM

## COC(=O)COc1ccc(C2Oc3cc(O)ccc3C3=C2c2ccc(O)cc2OCC3)cc1 (stereo not drawn)
Estrogen receptor beta
  IC50: 16 nM
Rattus norvegicus
  inhibition in vivo at 1 mg/kg: 0%
Estrogen receptor [1]
  IC50: > 10000 nM
Estrogen receptor [2]
  IC50: 4.8 nM

## CN1CCN(CCOc2cccc([C@@H]3Oc4cc(O)ccc4C4=C3c3ccc(O)cc3OCC4)c2)CC1
Estrogen receptor beta
  IC50: > 1000 nM
Estrogen receptor [1]
  IC50: > 10000 nM
Estrogen receptor [2]
  IC50: > 1000 nM

## Oc1ccc2c(c1)O[C@@H](c1ccc(OCCN3CCOCC3)cc1)C1=C2CCOc2cc(O)ccc21
Estrogen receptor beta
  IC50: 11 nM
Rattus norvegicus
  inhibition in vivo at 1 mg/kg: 0%
Estrogen receptor [1]
  IC50: > 10000 nM
Estrogen receptor [2]
  IC50: 10 nM

## O=C(O)CCOc1ccc([C@@H]2Oc3cc(O)ccc3C3=C2c2ccc(O)cc2OCC3)cc1
Estrogen receptor beta
  IC50: 44 nM
Rattus norvegicus
  inhibition in vivo at 1 mg/kg: 0%
Estrogen receptor [1]
  IC50: > 10000 nM
Estrogen receptor [2]
  IC50: 580 nM

## Oc1ccc2c(c1)O[C@@H](c1ccc(OCCN3CCSCC3)cc1)C1=C2CCOc2cc(O)ccc21
Estrogen receptor beta
  IC50: 390 nM
Rattus norvegicus
  inhibition in vivo at 1 mg/kg: 0%
Estrogen receptor [1]
  IC50: > 10000 nM
Estrogen receptor [2]
  IC50: 111 nM

## CN1CCN(CCOc2cccc([C@H]3Oc4cc(O)ccc4C4=C3c3ccc(O)cc3OCC4)c2)CC1
Estrogen receptor beta
  IC50: > 1000 nM
Estrogen receptor [1]
  IC50: > 10000 nM
Estrogen receptor [2]
  IC50: > 1000 nM

## Oc1ccc2c(c1)O[C@H](c1cccc(OCCN3CCSCC3)c1)C1=C2CCOc2cc(O)ccc21
Estrogen receptor beta
  IC50: > 1000 nM
Estrogen receptor [1]
  IC50: > 10000 nM
Estrogen receptor [2]
  IC50: > 1000 nM

## COc1ccc2c(c1)O[C@@H](c1ccc(OCCN3CCCCC3)cc1)C1=C2CCOc2cc(OC)ccc21
Estrogen receptor beta
  IC50: > 10000 nM
Rattus norvegicus
  inhibition in vivo at 1 mg/kg: 7%
Estrogen receptor [1]
  IC50: > 10000 nM
Estrogen receptor [2]
  IC50: > 10000 nM

## CN(C)CCOc1ccc([C@H]2Oc3cc(O)ccc3C3=C2c2ccccc2OCC3)cc1
Estrogen receptor beta
  IC50: 205 nM
Rattus norvegicus
  inhibition in vivo at 1 mg/kg: 23%
Estrogen receptor [1]
  IC50: 8990 nM
Estrogen receptor [2]
  IC50: 180 nM

## CN1CCN(CCOc2ccc([C@@H]3Oc4cc(O)ccc4C4=C3c3ccc(O)cc3OCC4)cc2)CC1
Estrogen receptor beta
  IC50: 580 nM
Rattus norvegicus
  inhibition in vivo at 1 mg/kg: 5%
Estrogen receptor [1]
  IC50: > 10000 nM
Estrogen receptor [2]
  IC50: 312 nM

## Oc1ccc2c(c1)O[C@H](c1cccc(OCCN3CCCCC3)c1)C1=C2CCOc2cc(O)ccc21
Estrogen receptor beta
  IC50: 380 nM
Rattus norvegicus
  inhibition in vivo at 1 mg/kg: 0%
Estrogen receptor [1]
  IC50: > 10000 nM
Estrogen receptor [2]
  IC50: 150 nM

## Oc1ccc2c(c1)O[C@@H](c1ccc(OCCN3CCCCCC3)cc1)C1=C2CCOc2ccccc21
Estrogen receptor beta
  IC50: 41 nM
Rattus norvegicus
  inhibition in vivo at 1 mg/kg: 7%
Estrogen receptor [1]
  IC50: 144 nM
Estrogen receptor [2]
  IC50: 4 nM

## CCN(CC)CCOc1ccc([C@@H]2Oc3cc(F)ccc3C3=C2c2ccc(O)cc2OCC3)cc1
Estrogen receptor beta
  IC50: 11 nM
Rattus norvegicus
  inhibition in vivo at 1 mg/kg: 11%
Estrogen receptor [1]
  IC50: 122 nM
Estrogen receptor [2]
  IC50: 7 nM

## Oc1ccc2c(c1)O[C@@H](c1ccc(OCCCN3CCCCC3)cc1)C1=C2CCOc2cc(O)ccc21
Estrogen receptor beta
  IC50: 19 nM
Rattus norvegicus
  inhibition in vivo at 1 mg/kg: 15%
Estrogen receptor [1]
  IC50: 590 nM
Estrogen receptor [2]
  IC50: 55 nM

## Oc1ccc2c(c1)O[C@H](c1ccc(OCCN3CCCCCC3)cc1)C1=C2CCOc2ccccc21
Estrogen receptor beta
  IC50: 140 nM
Rattus norvegicus
  inhibition in vivo at 1 mg/kg: 11%
Estrogen receptor [1]
  IC50: 2670 nM
Estrogen receptor [2]
  IC50: 85 nM

## Oc1ccc2c(c1)O[C@@H](c1ccc(OCCN3CCCCC3)cc1)C1=C2CCOc2ccccc21
Estrogen receptor beta
  IC50: 63 nM
Rattus norvegicus
  inhibition in vivo at 1 mg/kg: 12%
Estrogen receptor [1]
  IC50: 25.9 nM
Estrogen receptor [2]
  IC50: 6.3 nM

## Oc1ccc2c(c1)O[C@@H](c1cccc(OCCN3CCSCC3)c1)C1=C2CCOc2cc(O)ccc21
Estrogen receptor beta
  IC50: > 1000 nM
Estrogen receptor [1]
  IC50: > 10000 nM
Estrogen receptor [2]
  IC50: > 1000 nM

## O=C1CCC(=O)N1CCOc1ccc([C@@H]2Oc3cc(O)ccc3C3=C2c2ccc(O)cc2OCC3)cc1
Estrogen receptor beta
  IC50: 18.6 nM
Rattus norvegicus
  inhibition in vivo at 1 mg/kg: 0%
Estrogen receptor [1]
  IC50: > 10000 nM
Estrogen receptor [2]
  IC50: 6.2 nM

## CN(C)CCOc1ccc([C@H]2Oc3ccccc3C3=C2c2ccc(O)cc2OCC3)cc1
Estrogen receptor beta
  IC50: 105 nM
Rattus norvegicus
  inhibition in vivo at 1 mg/kg: 55%

## Oc1ccc2c(c1)O[C@H](c1ccc(OCCN3CCCCCC3)cc1)C1=C2CCOc2cc(O)ccc21
Estrogen receptor beta
  IC50: 19 nM
Rattus norvegicus
  inhibition in vivo at 1 mg/kg: 60%

## Oc1ccc2c(c1)O[C@@H](c1ccc(OCCN3CCCCCC3)cc1)C1=C2CCOc2cc(O)ccc21
Estrogen receptor beta
  IC50: 13.4 nM
Rattus norvegicus
  inhibition in vivo at 1 mg/kg: 50%
